Where two headings read alike, the source gives them in different places.
Experiments:
Pim2 kinase = Pim2 kinase (Homo sapiens, UniProt Q9P1W9); experiment: Pim2 ATP depletion assay; assay type: biochemical;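 also: Luciferase-based luminescent readout of ATP remaining after PIM2 phosphorylates a BAD peptide, final 5 nM enzyme, 4 µM ATP, 10 µM peptide, 2.5% DMSO, run to roughly half ATP consumption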
Pim3 kinase = Pim3 kinase (Homo sapiens, UniProt Q86V86); experiment: Pim3 ATP depletion assay; assay type: biochemical
KDR kinase = KDR kinase (Homo sapiens, UniProt P35968); experiment: KDR AlphaScreen assay; settings: KDR IC50 (μM)
Pim1 kinase = Pim1 kinase (Homo sapiens, UniProt P11309); experiment: Pim1 ATP depletion assay; assay type: biochemical; settings: Pim1 ATP depletion assay;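 also: Luciferase-luciferin luminescence readout of residual ATP after PIM1 transfers phosphate to a peptide substrate, 40 µM ATP added, reaction run to roughly half ATP consumption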
Pim1 kinase, sequence (P11309 whole entry): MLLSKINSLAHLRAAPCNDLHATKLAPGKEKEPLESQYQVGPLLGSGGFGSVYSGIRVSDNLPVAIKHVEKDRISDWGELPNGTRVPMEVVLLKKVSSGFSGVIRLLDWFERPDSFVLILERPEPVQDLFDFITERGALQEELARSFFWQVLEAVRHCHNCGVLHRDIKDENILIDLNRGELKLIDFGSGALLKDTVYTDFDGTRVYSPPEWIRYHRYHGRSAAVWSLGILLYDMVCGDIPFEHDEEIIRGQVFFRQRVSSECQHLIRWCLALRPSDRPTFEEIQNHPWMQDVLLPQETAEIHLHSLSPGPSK

KDR kinase, sequence (P35968 20-1356): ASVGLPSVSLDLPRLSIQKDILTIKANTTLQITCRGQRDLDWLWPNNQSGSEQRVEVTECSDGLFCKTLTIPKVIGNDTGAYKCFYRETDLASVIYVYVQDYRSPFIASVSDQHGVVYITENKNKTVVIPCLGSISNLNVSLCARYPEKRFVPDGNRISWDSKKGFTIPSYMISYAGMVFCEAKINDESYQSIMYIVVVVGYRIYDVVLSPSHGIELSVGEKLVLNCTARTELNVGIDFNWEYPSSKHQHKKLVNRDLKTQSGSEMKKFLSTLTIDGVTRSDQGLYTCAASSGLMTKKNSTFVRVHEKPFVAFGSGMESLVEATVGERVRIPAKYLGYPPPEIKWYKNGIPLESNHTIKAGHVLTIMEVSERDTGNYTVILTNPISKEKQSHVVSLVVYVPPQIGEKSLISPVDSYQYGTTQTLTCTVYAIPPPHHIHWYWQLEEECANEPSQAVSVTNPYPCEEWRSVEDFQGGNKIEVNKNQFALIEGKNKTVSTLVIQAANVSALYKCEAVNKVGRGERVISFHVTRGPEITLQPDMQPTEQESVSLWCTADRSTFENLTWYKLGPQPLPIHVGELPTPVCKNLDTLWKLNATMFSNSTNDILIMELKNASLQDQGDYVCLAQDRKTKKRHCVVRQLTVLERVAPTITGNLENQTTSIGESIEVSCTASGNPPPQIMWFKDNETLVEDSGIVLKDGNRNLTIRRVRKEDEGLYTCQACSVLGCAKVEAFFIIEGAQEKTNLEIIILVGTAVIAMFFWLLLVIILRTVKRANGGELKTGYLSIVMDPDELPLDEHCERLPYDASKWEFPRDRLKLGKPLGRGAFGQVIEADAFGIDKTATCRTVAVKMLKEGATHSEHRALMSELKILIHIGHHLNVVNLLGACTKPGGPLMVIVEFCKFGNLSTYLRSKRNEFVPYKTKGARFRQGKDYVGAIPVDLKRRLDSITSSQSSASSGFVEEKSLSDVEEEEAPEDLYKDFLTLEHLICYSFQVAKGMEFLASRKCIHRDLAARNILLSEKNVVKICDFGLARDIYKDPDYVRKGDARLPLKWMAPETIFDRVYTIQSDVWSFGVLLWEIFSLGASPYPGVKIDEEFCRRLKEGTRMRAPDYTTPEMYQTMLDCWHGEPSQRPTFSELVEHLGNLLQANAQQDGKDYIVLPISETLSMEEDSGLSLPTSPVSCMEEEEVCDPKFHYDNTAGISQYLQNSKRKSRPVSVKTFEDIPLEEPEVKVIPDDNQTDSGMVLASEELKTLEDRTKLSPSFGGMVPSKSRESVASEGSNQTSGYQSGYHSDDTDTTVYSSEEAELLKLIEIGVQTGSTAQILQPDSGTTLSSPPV
Pim2 kinase, sequence (Q9P1W9 whole entry): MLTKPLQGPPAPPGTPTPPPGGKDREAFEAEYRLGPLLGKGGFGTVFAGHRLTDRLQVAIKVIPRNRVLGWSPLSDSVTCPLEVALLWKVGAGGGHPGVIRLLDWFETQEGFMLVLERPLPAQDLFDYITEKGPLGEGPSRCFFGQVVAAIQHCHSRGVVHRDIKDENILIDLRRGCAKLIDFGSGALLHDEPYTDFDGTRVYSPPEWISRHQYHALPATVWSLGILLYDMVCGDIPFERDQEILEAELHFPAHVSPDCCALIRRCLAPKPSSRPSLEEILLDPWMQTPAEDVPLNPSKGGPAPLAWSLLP

Row | Compound | IC50 (Pim2 kinase; read-out: PIM2 IC50) [µM] | IC50 (Pim3 kinase; read-out: PIM3 IC50) [µM] | IC50 (KDR kinase) [µM] | IC50 (Pim1 kinase; read-out: PIM1 IC50) [µM] | IC50 (Pim2 kinase; read-out: IC50 (μM) PIM2) [µM] | IC50 (Pim3 kinase; read-out: IC50 (μM) PIM3) [µM] | IC50 (Pim1 kinase; read-out: IC50 (μM) PIM1) [µM]
1 | CC(=O)Nc1cccc(-c2ncc(N)c(C(=O)Nc3cnccc3N3CCC[C@H](N)C3)n2)c1 [Example 544, 2-(3-Acetylamino-phenyl)-5-amino-pyrimidine-4-carboxylic acid (3-amino-3,4,5,6-tetrahydro-2H-[1,4′]bipyridinyl-3′-yl)-amide] | < 1 | < 1 | 10 to 25 | < 1 |  |  | 
2 | Cc1cc(-c2ccncc2NC(=O)c2nc(-c3c(F)ccc(OC(C)C)c3F)ccc2N)cc(N)n1 [Example 538, 3-Amino-6-(2,6-difluoro-3-isopropoxy-phenyl)-pyridine-2-carboxylic acid (2′-amino-6′-methyl-[4,4′]bipyridinyl-3-yl)-amide] | < 1 | < 1 | 10 to 25 | < 1 |  |  | 
3 | CC1(N)CCCN(c2ccncc2NC(=O)c2nc(-c3ccccc3)ncc2N)C1 (stereo not drawn) [Example 261, 5-Amino-2-phenyl-pyrimidine-4-carboxylic acid (3-amino-3-methyl-3,4,5,6-tetrahydro-2H-[1,4′]bipyridinyl-3′-yl)-amide] |  |  | 1 to 10 |  | < 1 | < 1 | < 1
4 | Nc1ccc(-c2cncc(OCC3CC3)n2)nc1C(=O)Nc1cnccc1N1CCC[C@H](N)C1 [Example 521, 3-Amino-6-(6-cyclopropylmethoxy-pyrazin-2-yl)-pyridine-2-carboxylic acid (3-amino-3,4,5,6-tetrahydro-2H-[1,4′]bipyridinyl-3′-yl)-amide] |  |  | 1 to 10 |  | < 1 | < 1 | < 1
5 | CSc1nc(N)cc(-c2ccncc2NC(=O)c2nc(-c3cc(C(=O)NC(C)C)ccc3F)ccc2N)n1 [Example 534, 3-Amino-6-(2-fluoro-5-isopropylcarbamoyl-phenyl)-pyridine-2-carboxylic acid [4-(6-amino-2-methylsulfanyl-pyrimidin-4-yl)-pyridin-3-yl]-amide] |  |  | 1 to 10 |  | < 1 | < 1 | < 1
6 | CC(C)COc1cncc(-c2ccc(N)c(C(=O)Nc3cnccc3N3CCC[C@H](N)C3)n2)n1 [Example 523, 3-Amino-6-(6-isobutoxy-pyrazin-2-yl)-pyridine-2-carboxylic acid (3-amino-3,4,5,6-tetrahydro-2H-[1,4′]bipyridinyl-3′-yl)-amide] |  |  | 10 to 25 |  | < 1 | < 1 | < 1
7 | Nc1ccc(-c2cncc(O)n2)nc1C(=O)Nc1cnccc1N1CCC[C@H](N)C1 [Example 522, 3-Amino-6-(6-hydroxy-pyrazin-2-yl)-pyridine-2-carboxylic acid (3-amino-3,4,5,6-tetrahydro-2H-[1,4′]bipyridinyl-3′-yl)-amide] |  |  | 1 to 10 |  | < 1 | < 1 | < 1
8 | CCCOc1ccc(F)c(-c2ncc(N)c(C(=O)Nc3cnccc3N3CCC[C@H](N)C3)n2)c1 [Example 550, 5-Amino-2-(2-fluoro-5-propoxy-phenyl)-pyrimidine-4-carboxylic acid (3-amino-3,4,5,6-tetrahydro-2H-[1,4′]bipyridinyl-3′-yl)-amide] | < 1 | < 1 | 10 to 25 | < 1 |  |  | 
9 | CC(C)NC(=O)c1ccc(F)c(-c2ncc(N)c(C(=O)Nc3cnccc3N3CCC[C@H](N)C3)n2)c1 [Example 542, 5-Amino-2-(2-fluoro-5-isopropylcarbamoyl-phenyl)-pyrimidine-4-carboxylic acid (3-amino-3,4,5,6-tetrahydro-2H-[1,4′]bipyridinyl-3′-yl)-amide] | < 1 | < 1 | 10 to 25 | < 1 |  |  | 
10 | N[C@H]1CCCN(c2ccncc2NC(=O)c2ccnc(-c3c(F)cccc3F)n2)C1 [Example 249, N-{4-[(3S)-3-aminopiperidin-1-yl]pyridin-3-yl}-2-(2,6-difluorophenyl)pyrimidine-4-carboxamide N-{4-[(3S)-3-aminopiperidin-1-yl]pyridin-3-yl}-2-(2,6-difluorophenyl)-pyrimidine-4-carboxamide] |  |  | 10 to 25 |  | < 1 | < 1 | < 1

Second part, the compound after the results:

Row | IC50 (Pim2 kinase; read-out: PIM2 IC50) [µM] | IC50 (Pim3 kinase; read-out: PIM3 IC50) [µM] | IC50 (KDR kinase) [µM] | IC50 (Pim1 kinase; read-out: PIM1 IC50) [µM] | IC50 (Pim2 kinase; read-out: IC50 (μM) PIM2) [µM] | IC50 (Pim3 kinase; read-out: IC50 (μM) PIM3) [µM] | IC50 (Pim1 kinase; read-out: IC50 (μM) PIM1) [µM] | Compound
11 | < 1 | < 1 | 10 to 25 | < 1 |  |  |  | Nc1cnc(-c2ccc(Cl)cc2F)nc1C(=O)Nc1cnccc1N1CCC[C@H](N)C1 [Example 547, 5-Amino-2-(4-chloro-2-fluoro-phenyl)-pyrimidine-4-carboxylic acid (3-amino-3,4,5,6-tetrahydro-2H-[1,4′]bipyridinyl-3′-yl)-amide]
12 | < 1 | < 1 | 10 to 25 | < 1 |  |  |  | Nc1ccc(C2CCCC2)nc1C(=O)Nc1cnccc1N1CCC[C@H](N)C1 [Example 644, 3-Amino-6-cyclopentyl-pyridine-2-carboxylic acid (3-amino-3,4,5,6-tetrahydro-2H-[1,4′]bipyridinyl-3′-yl)-amide]
13 | < 1 | < 1 | 1 to 10 | < 1 |  |  |  | Nc1ccc(-c2ccccc2F)nc1C(=O)Nc1cnccc1-c1ccnc(O)c1 [Example 614, 3-amino-6-(2-fluorophenyl)-N-(2′-hydroxy-4,4′-bipyridin-3-yl)pyridine-2-carboxamide]
14 | < 1 | < 1 | 10 to 25 | < 1 |  |  |  | Nc1cnc(-c2c(F)cccc2F)nc1C(=O)Nc1cnccc1N1CCC[C@H](O)C1 [Example 648, 5-Amino-2-(2,6-difluoro-phenyl)-pyrimidine-4-carboxylic acid (3-hydroxy-3,4,5,6-tetrahydro-2H-[1,4′]bi-pyridinyl-3′-yl)-amide]
15 | < 1 | < 1 | 10 to 25 | < 1 |  |  |  | Cc1ccc(F)c(-c2ncc(N)c(C(=O)Nc3cnccc3N3CCC[C@H](N)C3)n2)c1 [Example 543, 5-Amino-2-(2-fluoro-5-methyl-phenyl)-pyrimidine-4-carboxylic acid (3-amino-3,4,5,6-tetrahydro-2H-[1,4′]bipyridinyl-3′-yl)-amide]
16 |  |  | 1 to 10 |  | < 1 | < 1 | < 1 | Nc1ccc(-c2ccccc2)nc1C(=O)Nc1cnccc1N1CCC[C@H](N)C1 [Example 524, 3-Amino-6-phenyl-pyridine-2-carboxylic acid (3-amino-3,4,5,6-tetrahydro-2H-[1,4′]bipyridinyl-3′-yl)-amide]
17 | < 1 | < 1 | 10 to 25 | < 1 |  |  |  | Nc1cnc(-c2ccccc2)nc1C(=O)Nc1cnccc1N1CCC[C@H](O)C1 [Example 650, 5-Amino-2-phenyl-pyrimidine-4-carboxylic acid (3-hydroxy-3,4,5,6-tetrahydro-2H-[1,4′]bi-pyridinyl-3′-yl)-amide]
18 |  |  | 10 to 25 |  | < 1 | < 1 | < 1 | N[C@H]1CCCN(c2ccncc2NC(=O)c2cccc(-c3ccccc3)n2)C1 [Example 487, 6-Phenyl-pyridine-2-carboxylic acid (3-amino-3,4,5,6-tetrahydro-2H-[1,4′]bipyridinyl-3′-yl)-amide]
19 |  |  | 10 to 25 |  | < 1 | < 1 | < 1 | Nc1ccc(-c2ccccc2F)nc1C(=O)Nc1cnccc1N1CCCC(O)(C(F)(F)F)C1 (stereo not drawn) [Example 164, 3-Amino-6-(2-fluoro-phenyl)-pyridine-2-carboxylic acid (3-hydroxy-3-trifluoromethyl-3,4,5,6-tetrahydro-2H-[1,4′]bi-pyridinyl-3′-yl)-amide]
20 |  |  | 10 to 25 |  | < 1 | < 1 | < 1 | Nc1ccc(-c2cnc(N)c(OCC(F)(F)F)n2)nc1C(=O)Nc1cnccc1N1CCC[C@H](N)C1 [Example 519, 3-Amino-6-[5-amino-6-(2,2,2-trifluoro-ethoxy)-pyrazin-2-yl]-pyridine-2-carboxylic acid (3-amino-3,4,5,6-tetrahydro-2H-[1,4′]bipyridinyl-3′-yl)-amide]
21 |  |  | 10 to 25 |  | < 1 | < 1 | < 1 | Nc1cnc(-c2ccccc2)nc1C(=O)Nc1cnccc1N1CCC[C@H](N)C1 [Example 265, 5-Amino-2-phenyl-pyrimidine-4-carboxylic acid (3-amino-3,4,5,6-tetrahydro-2H-[1,4′]bipyridinyl-3′-yl)-amide]
22 |  |  | 10 to 25 |  | < 1 | < 1 | < 1 | Nc1cnc(-c2ccccc2F)nc1C(=O)Nc1cnccc1N1CCCC(O)(C(F)(F)F)C1 (stereo not drawn) [Example 166, 5-Amino-2-(2-fluoro-phenyl)-pyrimidine-4-carboxylic acid (3-hydroxy-3-trifluoromethyl-3,4,5,6-tetrahydro-2H-[1,4′]bi-pyridinyl-3′-yl)-amide]
23 |  |  | 10 to 25 |  | < 1 | < 1 | < 1 | CC(C)NC(=O)c1ccc(F)c(-c2ccc(N)c(C(=O)Nc3cnccc3N3CCCC(O)(C(F)(F)F)C3)n2)c1 (stereo not drawn) [Example 163, 3-Amino-6-(2-fluoro-5-isopropylcarbamoyl-phenyl)-pyridine-2-carboxylic acid (3-hydroxy-3-trifluoromethyl-3,4,5,6-tetrahydro-2H-[1,4′]bi-pyridinyl-3′-yl)-amide]
24 | 1 to 10 | < 1 | 1 to 10 | < 1 |  |  |  | Cc1cnc(O)cc1-c1ccncc1NC(=O)c1nc(-c2c(F)cccc2F)ccc1N [Example 612, 3-amino-6-(2,6-difluorophenyl)-N-(2′-hydroxy-5′-methyl-4,4′-bipyridin-3-yl)pyridine-2-carboxamide]

Source: US20140249135A1, “PIM KINASE INHIBITORS AND METHODS OF THEIR USE” (NOVARTIS AG, priority 2007, published 2014)
